Like-named read-outs stand apart in the source and are kept apart here.
Legend:
[1] = molecular target: T1, bovine serum albumin (BSA) (Bos taurus, UniProt P02769); assay: Competitive albumin-fluorescence studies with warfarin and ibuprofen; assay type: binding; conditions: for preferential BSA-binding site: from comparison of K with and without site markers; for K(BSA, ibuprofen): in the presence of ibuprofen; for K(BSA, warfarin): in the presence of warfarin
T1 construct: purchased Sigma-Aldrich Co
Text: (§1) One of the primary functions of SAs is the transport of various compounds such as drugs, fatty acids and hormones. Albumins are composed of three domains, I, II and III, and each of them is subdivided into A and B subdomains that host compounds [90]. […] Site markers like warfarin and ibuprofen are used to identify in which albumin site a compound is bound, as these markers bind selectively to Sudlow’s sites I and II, respectively. The SA-binding site of the compounds was investigated by calculating the SA-binding constant for both HSA and BSA in the presence of ibuprofen or warfarin and comparing them with the values previously derived (in the absence of any marker).
(§2) Incremental addition of the compounds into a solution containing the SA (HSA or BSA) and the respective site marker (warfarin or ibuprofen) induced quenching of the initial fluorescence emission band (Figures S19–S22). The SA-binding constants for each compound in the presence of warfarin or ibuprofen were calculated with the Scatchard equation (Equation (S7)) and the corresponding plots (Figures S23–S26) and are compared with those calculated in the absence of any site marker to determine the preferable drug site. […]
(§3) From the Scatchard equation:
(§4) [Q] = nK − K Io (equation S7) where n is the number of binding sites per albumin and K is the albumin−binding constant (K, in M−1) is calculated from the slope in plots (ΔI/Io)/[compound] versus (ΔI/Io) and n is given by the ratio of y intercept to the slope.
(§5) S5.2 Competitive albumin−fluorescence studies with warfarin and ibuprofen The competitive studies with warfarin or ibuprofen (as site−markers) were performed by tryptophan fluorescence quenching experiments using a fixed concentration of the albumin and site markers (3 μM) in buffer (containing 15 mM trisodium citrate and 150 mM NaCl at pH 7.0). The fluorescence emission spectra were recorded in the presence of increasing amounts of the compounds as quenchers with an excitation wavelength of 295 nm. The Scatchard equation (equation S7) and plots were applied on the corrected albumin−fluorescence emission spectra to determine the albumin−binding constant of the compounds in the presence of warfarin or ibuprofen.

[2] = molecular target: T2, human serum albumin (HSA) (Homo sapiens, UniProt P02768); assay: as above; assay type: binding; conditions: for K(HSA, ibuprofen): in the presence of ibuprofen; for K(HSA, warfarin): in the presence of warfarin
T2 construct: purchased Sigma-Aldrich Co
Text: as §1, §2, §3, §4, §5

[3] = test system: Escherichia coli XL1; assay: Antibacterial activity, MIC; assay type: cell-based; conditions: 24 h incubation, 37°C
Text: (§6) In order to evaluate the antimicrobial activity of the synthesized 4′–NO2–fenH and its Co(II) complexes 1–4, two Gram-positive (B. subtilis and S. aureus) and two Gram-negative (X. campestris and E. coli) strains were used. In general, the increased antimicrobial activity of the complexes is attributed to five main factors: (i) the chelation effect of the ligands, (ii) the chemical nature of the ligands, (iii) the nature and the nuclearity of the metal center, (iv) the total charge of the complex and (v) the presence and nature of counter ions. […]
(§7) S2 Antibacterial Activity studies
(§8) The antibacterial activity of the compounds was evaluated by determining their respective MIC values towards two Gram–(–) (Escherichia coli XL1 (E. coli) and Xanthomonas campestris ATCC 1395 (X. campestris)) and two Gram–(+) (Staphylococcus aureus ATCC 29213 (S. aureus) and Bacillus subtilis ATCC 6633 (B. subtilis)) bacterial species. Cultures of these microbial strains were grown on a rich selective agar medium and stored at 4°C. The selective media used were Nutrient Agar or Broth for B. subtilis and S. aureus, Yeast Mold Agar or Broth for X. campestris and Luria Agar or Broth for E. coli. Cells picked from the surface of the stored cultures were used to initiate liquid pre–cultures of the same selective medium at an initial turbidity of roughly 1 McFarland unit.
(§9) Pre–cultures were incubated for 24 h in a rotary shaking incubator and subsequently they were used to inoculate the test cultures used for the determination of MIC at an initial turbidity of 0.5 McFarland units. The test cultures consisted of Mueller–Hinton broth (Deben Diagnostics Ltd) containing different concentrations of the compounds. Different concentrations were achieved as follows: the compounds were freshly dissolved in DMSO to a concentration of 1 mg/mL, and they were diluted with DMSO, using the method of progressive double dilution. Therefore, working solutions with decreasing concentrations of the compounds under investigation were achieved.
(§10) The working solutions were subsequently diluted to the final desired concentration by addition to the growth medium at a proportion of 2:98. MIC values were determined as the lowest concentrations of the tested compounds that inhibited visible growth of each respective organism after a 24 h incubation. Bacterial growth was determined by measuring the turbidity of appropriately diluted cultures at 600 nm with reference to equally diluted sterile growth medium and the inhibition achieved was calculated by comparing the turbidity of each culture to the average of the turbidity of three non–inhibited cultures. All test cultures were grown in triplicates and for the determination of MIC, growth had to be inhibited in at least two cultures of the triplicate. The incubation temperature at all stages was 37°C except for X. campestris that was cultivated at 28°C [4].

[4] = test system: Bacillus subtilis ATCC 6633; assay: Antibacterial activity, MIC; assay type: cell-based; conditions: 24 h incubation, 37°C; for MIC: read-out: MIC, B. subtilis
Text: as §6, §7, §8, §9, §10

[5] = test system: Staphylococcus aureus ATCC 29213; assay: Antibacterial activity, MIC; assay type: cell-based; conditions: 24 h incubation, 37°C; for MIC: read-out: MIC, S. aureus
Text: as §6, §7, §8, §9, §10

[6] = test system: Xanthomonas campestris ATCC 33013; assay: Antibacterial activity, MIC; assay type: cell-based; conditions: for MIC: read-out: MIC, X. campestris
Text: as §6, §7, §8, §9, §10

[7] = value in parentheses, 24 h incubation, 28°C

T1 sequence (P02769 25-607): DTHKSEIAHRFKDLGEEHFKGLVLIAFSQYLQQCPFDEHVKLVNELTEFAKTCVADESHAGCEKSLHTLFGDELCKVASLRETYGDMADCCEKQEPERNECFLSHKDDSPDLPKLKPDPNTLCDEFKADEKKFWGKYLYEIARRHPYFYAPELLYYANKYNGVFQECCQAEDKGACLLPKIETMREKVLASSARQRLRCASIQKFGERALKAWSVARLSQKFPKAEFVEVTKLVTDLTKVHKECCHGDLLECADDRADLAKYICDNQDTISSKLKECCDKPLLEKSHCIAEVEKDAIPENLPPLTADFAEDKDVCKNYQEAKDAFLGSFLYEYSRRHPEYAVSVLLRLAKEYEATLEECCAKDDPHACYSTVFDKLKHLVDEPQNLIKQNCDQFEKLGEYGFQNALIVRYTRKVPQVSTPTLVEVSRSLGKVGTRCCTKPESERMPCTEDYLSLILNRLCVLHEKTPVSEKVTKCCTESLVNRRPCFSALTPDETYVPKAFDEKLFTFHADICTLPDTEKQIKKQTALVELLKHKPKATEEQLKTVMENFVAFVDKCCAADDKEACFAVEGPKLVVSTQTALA
T2 sequence (P02768 25-609): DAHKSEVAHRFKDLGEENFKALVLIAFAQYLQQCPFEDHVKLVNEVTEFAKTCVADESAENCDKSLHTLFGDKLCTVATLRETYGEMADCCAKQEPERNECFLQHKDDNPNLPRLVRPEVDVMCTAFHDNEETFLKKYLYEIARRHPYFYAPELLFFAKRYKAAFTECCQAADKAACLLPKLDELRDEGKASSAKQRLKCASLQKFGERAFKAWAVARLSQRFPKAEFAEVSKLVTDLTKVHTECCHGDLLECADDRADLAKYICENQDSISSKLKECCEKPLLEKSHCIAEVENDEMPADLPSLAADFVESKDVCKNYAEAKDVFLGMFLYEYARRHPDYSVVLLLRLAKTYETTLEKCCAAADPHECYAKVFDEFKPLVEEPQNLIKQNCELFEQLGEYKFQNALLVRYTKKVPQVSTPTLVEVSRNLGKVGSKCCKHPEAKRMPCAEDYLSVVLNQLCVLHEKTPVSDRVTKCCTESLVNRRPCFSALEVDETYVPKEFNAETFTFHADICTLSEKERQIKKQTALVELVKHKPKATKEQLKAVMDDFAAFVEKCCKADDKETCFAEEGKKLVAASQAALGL

For `O=C(O)c1ccccc1Nc1ccc([N+](=O)[O-])cc1` [4′–NO2–fenH, 4′–nitrofenamic acid], which “preferential BSA-binding site” value [1] is on record?
The value was “Sudlow’s site I”.

And the “K(BSA, ibuprofen)” value [1]?
The value was 2.70 (±0.11) × 10^5 M^−1.

What about the “K(BSA, warfarin)” value [1] of the same compound?
Its value is 1.41 (±0.06) × 10^5 M^−1.

And the “K(HSA, ibuprofen)” value [2]?
The value was 2.91 (±0.06) × 10^5 M^−1.

And the “K(HSA, warfarin)” value [2]?
Its value is 3.22 (±0.12) × 10^5 M^−1.

What about the MIC ([3]; Escherichia coli, XL1) of the same compound?
Its MIC is 25 µg/mL.

What about the MIC ([3]; Escherichia coli, XL1, value in parentheses) of the same compound?
The MIC was 97 µM.

And the MIC ([4]; Bacillus subtilis, ATCC6633)?
Its MIC is 12.5 µg/mL.

And the MIC ([4]; Bacillus subtilis, ATCC6633, value in parentheses)?
The MIC was 48 µM.

And the MIC ([5]; Staphylococcus aureus, ATCC29213)?
Its MIC is 25 µg/mL.

And the MIC ([5]; Staphylococcus aureus, ATCC29213, value in parentheses)?
The MIC was 97 µM.

What about the MIC ([6]; Xanthomonas campestris, ATCC33013, 24 h) of the same compound?
The MIC was 25 µg/mL.

And the MIC ([6]; Xanthomonas campestris, ATCC33013, value in parentheses, 24 h incubation, 28°C)?
Its MIC is 97 µM.

For `CO.CO.CO.CO.O=C([O-])c1ccccc1Nc1ccc([N+](=O)[O-])cc1.O=C([O-])c1ccccc1Nc1ccc([N+](=O)[O-])cc1.[Co+2]` [Complex 1, [Co(4′–NO2–fen)2(MeOH)4]], which “preferential BSA-binding site” value [1] is on record?
Its value is “Sudlow’s site I”.

What about the “K(BSA, ibuprofen)” value [1] of the same compound?
The value was 1.38 (±0.08) × 10^5 M^−1.

And the “K(BSA, warfarin)” value [1]?
The value was 1.06 (±0.04) × 10^5 M^−1.

And the “K(HSA, ibuprofen)” value [2]?
Its value is 1.66 (±0.09) × 10^5 M^−1.

And the “K(HSA, warfarin)” value [2]?
Its value is 1.99 (±0.11) × 10^5 M^−1.

And the “MIC, E. coli” value [3]?
The value was greater than 50 µg/mL.

And the MIC ([3]; value in parentheses)?
The MIC was greater than 71 µM.

What about the “MIC, B. subtilis” value [4] of the same compound?
The value was 12.5 µg/mL.

And the MIC ([4]; value in parentheses)?
The MIC was 18 µM.

And the “MIC, S. aureus” value [5]?
The value was 12.5 µg/mL.

What about the MIC ([5]; value in parentheses) of the same compound?
The MIC was 18 µM.

And the “MIC, X. campestris” value ([6]; 24 h incubation, 28°C)?
Its value is greater than 50 µg/mL.

What about the MIC [6, 7] of the same compound?
Its MIC is greater than 71 µM.

With `O=C([O-])c1ccccc1Nc1ccc([N+](=O)[O-])cc1.O=C([O-])c1ccccc1Nc1ccc([N+](=O)[O-])cc1.[Co+2].c1ccc(Nc2ccccn2)nc1` [Complex 2, [Co(4′–NO2–fen)2(bipyam)]] as the compound, how does the “preferential BSA-binding site” value [1] read?
Its value is “Sudlow’s site II”.

What about the “K(BSA, ibuprofen)” value [1] of the same compound?
The value was 1.42 (±0.09) × 10^5 M^−1.

What about the “K(BSA, warfarin)” value [1] of the same compound?
The value was 1.85 (±0.06) × 10^5 M^−1.

What about the “K(HSA, ibuprofen)” value [2] of the same compound?
Its value is 2.02 (±0.03) × 10^5 M^−1.

And the “K(HSA, warfarin)” value [2]?
The value was 2.75 (±0.19) × 10^5 M^−1.

What about the “MIC, E. coli” value [3] of the same compound?
The value was greater than 50 µg/mL.

And the MIC ([3]; value in parentheses)?
The MIC was greater than 67 µM.

And the “MIC, B. subtilis” value [4]?
The value was 25 µg/mL.

And the MIC ([4]; value in parentheses)?
The MIC was 34 µM.

And the “MIC, S. aureus” value [5]?
Its value is greater than 50 µg/mL.

And the MIC ([5]; value in parentheses)?
The MIC was greater than 67 µM.

And the “MIC, X. campestris” value ([6]; 24 h incubation, 28°C)?
The value was 25 µg/mL.

Which results are given for `O=C([O-])c1ccccc1Nc1ccc([N+](=O)[O-])cc1.O=C([O-])c1ccccc1Nc1ccc([N+](=O)[O-])cc1.[Co+2].c1cnc2c(c1)ccc1cccnc12` [Complex 3, [Co(4′–NO2–fen)2(phen)]]?
preferential BSA-binding site [1]: Sudlow’s site I; K(BSA, ibuprofen) [1]: 1.95 (±0.03) × 10^5 M^−1; K(BSA, warfarin) [1]: 1.60 (±0.06) × 10^5 M^−1; K(HSA, ibuprofen) [2]: 5.23 (±0.17) × 10^4 M^−1; K(HSA, warfarin) [2]: 4.80 (±0.17) × 10^5 M^−1; MIC, E. coli [3]: 25 µg/mL; MIC ([3]; value in parentheses): 33 µM; MIC, B. subtilis [4]: 25 µg/mL; MIC ([4]; value in parentheses): 33 µM; MIC, S. aureus [5]: 25 µg/mL; MIC ([5]; value in parentheses): 33 µM; MIC, X. campestris ([6]; 24 h incubation, 28°C): 25 µg/mL; MIC [6, 7]: 33 µM

For `C[O-].C[O-].Cc1ccc2ccc3ccc(C)nc3c2n1.Cc1ccc2ccc3ccc(C)nc3c2n1.O=C([O-])c1ccccc1Nc1ccc([N+](=O)[O-])cc1.O=C([O-])c1ccccc1Nc1ccc([N+](=O)[O-])cc1.[Co+2].[Co+2]` [Complex 4, [Co2(4′–NO2–fen)2(μ–CH3O)2(neoc)2]], which “preferential BSA-binding site” value [1] is on record?
Its value is “Sudlow’s site I”.

What about the “K(BSA, ibuprofen)” value [1] of the same compound?
Its value is 3.60 (±0.14) × 10^5 M^−1.

What about the “K(BSA, warfarin)” value [1] of the same compound?
Its value is 2.40 (±0.06) × 10^5 M^−1.

And the “K(HSA, ibuprofen)” value [2]?
The value was 3.04 (±0.15) × 10^5 M^−1.

What about the “K(HSA, warfarin)” value [2] of the same compound?
The value was 5.00 (±0.18) × 10^5 M^−1.

What about the “MIC, E. coli” value [3] of the same compound?
The value was greater than 50 µg/mL.

And the MIC ([3]; value in parentheses)?
Its MIC is greater than 45 µM.

What about the “MIC, B. subtilis” value [4] of the same compound?
Its value is 12.5 µg/mL.

And the MIC ([4]; value in parentheses)?
The MIC was 11 µM.

And the “MIC, S. aureus” value [5]?
The value was 12.5 µg/mL.

What about the MIC ([5]; value in parentheses) of the same compound?
Its MIC is 11 µM.

And the “MIC, X. campestris” value ([6]; 24 h incubation, 28°C)?
Its value is 12.5 µg/mL.

What about the MIC [6, 7] of the same compound?
Its MIC is 11 µM.

— paper PMC12195967, “Cobalt(II) Complexes of 4′–Nitro–Fenamic Acid: Characterization and Biological Evaluation” (Molecules, 2025)
